Data from PubChem BioAssay (NCI).
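Briefly, cells in 96-well plates were exposed to five compound concentrations for 48 h, and endpoints were estimated by linear interpolation. At the GI50, growth is halved. TGI: concentration producing complete growth inhibition.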

Assays:
Assay in all cases: DTP human tumour cell line panel, 48 h
[1] = test system: UACC-257 melanoma
[2] = test system: NCI-H226 lung
[3] = test system: LOX IMVI melanoma
[4] = test system: RPMI-8226 leukemia
[5] = test system: SR leukemia
[6] = test system: SK-MEL-28 melanoma
[7] = test system: MDA-MB-231 breast
[8] = test system: MDA-MB-435
[9] = test system: BT-549 breast
[10] = test system: T-47D breast

SMILES	TGI [1]	TGI [2]	TGI [3]	TGI [4]	TGI [5]	TGI [6]	GI50 [7]	TGI [7]	GI50 [8]	TGI [8]	GI50 [1]	GI50 [2]	GI50 [3]	GI50 [4]	GI50 [9]	TGI [9]	GI50 [5]	GI50 [6]	TGI [10]	GI50 [10]
Cc1ccc(/C=C(\C#N)c2ccccc2)cc1	> 100 µM	> 100 µM	> 100 µM	> 100 µM	> 100 µM	> 100 µM														
COCOCC[C@@H]1CC=CC(NC(=O)OCc2ccccc2)C1/C=C/C(=O)CCC1OCCO1 (stereo partly specified)	66.3 µM	> 100 µM	34 µM	63.5 µM	23.6 µM	> 63.3 µM														
COC(=O)C(C(=O)C(=O)Nc1ccc(OC)cc1[N+](=O)[O-])c1nc2cc(C)c(C)cc2[nH]c1=O (stereo unspecified)	> 100 µM	> 100 µM	> 100 µM		> 100 µM	> 100 µM														
CCCN1C(=O)/C(=C/c2ccc(O)cc2)SC1=Nc1ccc(OC)cc1	31.7 µM	95.5 µM	30.8 µM	42 µM	> 100 µM	41 µM	14.1 µM	31 µM	14.9 µM	31.2 µM	17.3 µM	32 µM	15.4 µM	12.4 µM	15.3 µM	34.9 µM	10.4 µM	19.4 µM		
Cc1nc(Nc2ccccc2)sc1C(=O)CC(=O)C(=O)NC12CC3CC(CC(C3)C1)C2	> 100 µM	> 100 µM	> 100 µM			> 100 µM														
NNC(=O)N/N=C1\C(=O)N(c2nccs2)C(=O)C(=O)C1c1nc2ccccc2s1 (stereo unspecified)	> 100 µM	> 100 µM	> 100 µM	> 100 µM		> 100 µM														
CCOC(=O)NC(=O)c1cn(CCN2CCNCC2)c(=O)[nH]c1=O		> 100 µM	> 100 µM	> 100 µM	> 100 µM	> 100 µM														
OC1CCC[C@@H]1Sc1ccccc1 (stereo partly specified)	> 100 µM		> 100 µM	> 100 µM	> 100 µM	> 100 µM														
CO[C@@H]1[C@H]2[C@@H](C)c3ccoc3C[C@@H]2[C@@]2(C)CC[C@H](OC(=O)c3ccccc3)[C@](C)(C(=O)O)[C@]2(O)[C@@H]1OC(=O)c1ccccc1	40.7 µM	26.7 µM	13.6 µM	> 50 µM	> 50 µM	> 50 µM	6.07 µM	16 µM	7.97 µM	19.5 µM	15.9 µM	9.77 µM	6.73 µM	15.4 µM	8.99 µM	29.7 µM	10.9 µM	14.5 µM		
C/C=C(/C)C(=O)OC1C=C(CO)C(=O)C(OC(=O)C(C)(O)C(C)Cl)C1C(C)C (stereo unspecified)	3.32 µM	13 µM	2.82 µM	2.65 µM	2.16 µM	2.98 µM	0.758 µM	2.26 µM	1.35 µM	2.83 µM	1.42 µM	3.72 µM	1.31 µM	0.429 µM	1.95 µM	4.71 µM	0.255 µM	1.46 µM		
CC1=C2[C@H](c3ccccc3)C3C=CC2(c2ccccc23)N(C(=O)C(c2ccccc2)c2ccccc2)C1=O (stereo partly specified)	> 100 µM		> 100 µM		> 100 µM	> 100 µM														
COC(=O)C(=O)C(C(=O)C=C(C)C)C(=O)C(=O)Nc1nc2ccc([N+](=O)[O-])cc2s1 (stereo unspecified)	> 100 µM	> 100 µM	> 100 µM	> 100 µM		> 100 µM														
CCN(CC)CC(C)(C)C(=O)/C=C/c1ccc(/C=C/C(=O)C(C)(C)CN(CC)CC)cc1	4.26 µM	6.97 µM	1.04 µM	0.46 µM	0.758 µM	2.28 µM		0.756 µM		2.16 µM									3.21 µM	
CC(=O)O/N=C(Cl)/C(Cl)=N/OC(C)=O	> 100 µM	> 100 µM	> 100 µM	> 100 µM	> 100 µM	> 100 µM														
CC1CC(C)C2=NOS3=C2C1=NO3 (stereo unspecified)	> 100 µM	> 100 µM	> 100 µM	> 100 µM	> 100 µM	> 100 µM		> 100 µM		> 100 µM									> 100 µM	
O=C(Nc1cccnc1)c1ccc2ccc3ccc(C(=O)Nc4cccnc4)nc3c2n1		> 100 µM	> 100 µM	> 100 µM	> 100 µM	> 100 µM	0.226 µM	> 100 µM	0.184 µM	> 100 µM		0.128 µM	0.18 µM	0.0876 µM			0.155 µM	0.324 µM	> 100 µM	0.257 µM
Cc1cc(C)nc(NS(=O)(=O)c2ccc(NC(=O)c3ccc(Cl)c4c(Nc5ccc(S(=O)(=O)N=C(N)N)cc5)c5ccccc5nc34)cc2)n1	> 100 µM	> 100 µM	44.4 µM	> 100 µM		> 100 µM														
COc1cc(CC(C(=O)O)C(=O)O)c(OC)cc1CC(C(=O)O)C(=O)O	> 100 µM	> 100 µM	> 100 µM	> 100 µM	> 100 µM															
Nc1nc(N)c(N=Nc2ccc(C(=O)O)c(O)c2)c(N)n1	> 100 µM	> 100 µM	> 100 µM	> 100 µM	> 100 µM	> 100 µM		> 100 µM		> 100 µM						> 100 µM				

SMILES	TGI [1]	TGI [2]	TGI [3]	TGI [4]	TGI [5]	TGI [6]	GI50 [7]	TGI [7]	GI50 [8]	TGI [8]	GI50 [1]	GI50 [2]	GI50 [3]	GI50 [4]	GI50 [9]	TGI [9]	GI50 [5]	GI50 [6]	TGI [10]	GI50 [10]
Cc1ccc(NC(=O)CC/C(CC(=O)C(C)(C)C)=N\Nc2ccc([N+](=O)[O-])cc2[N+](=O)[O-])cc1C	> 100 µM	> 100 µM	97.2 µM		> 100 µM	> 100 µM														
CN(C)CCNC(=O)c1cccc2ncc(-c3ccccc3)nc12	31.3 µM	31.3 µM	29.5 µM		6.95 µM	36.1 µM														
Cc1c(C2Cc3ccccc3N2)c2ccccc2n1C (stereo unspecified)	> 100 µM	> 100 µM	> 100 µM		> 100 µM															
CC(=O)ON(C(C)=O)C1C(COC(c2ccccc2)(c2ccccc2)c2ccccc2)OC2OC3(CCCC3)OC21 (stereo unspecified)	> 100 µM	> 100 µM	21.3 µM	9.83 µM	> 100 µM	> 100 µM														
O=C1[C@H](Cl)[C@H]2c3cc4ccccc4nc3Oc3ccccc3N12	> 100 µM	> 100 µM	> 100 µM	65.5 µM	> 100 µM	> 100 µM														
COc1ccc(NC(=O)CCc2cc(C(C)(C)C)n[nH]2)cc1	> 100 µM	> 100 µM	> 100 µM	> 100 µM	> 100 µM	> 100 µM														
CN(C)CCC1(C2=CCCC2)CC/C(=C\c2ccccc2Cl)C1=O (stereo unspecified)	28.4 µM			> 100 µM		26.2 µM														
CC(=N)N(C)O	> 100 µM	> 100 µM	31.3 µM	> 100 µM	68.4 µM	> 100 µM														
CCCCCCCCCCCCCC(=O)OCC1OC(n2cc(F)c(=O)[nH]c2=O)C(N)C(OC(=O)CCCCCCCCCCCCC)C1O (stereo unspecified)	> 100 µM		> 100 µM	> 100 µM	> 100 µM	> 100 µM														
COc1cc(/C=C\c2ccc(OC(C)=O)cc2)cc(OC)c1OC	> 100 µM	> 100 µM		> 100 µM	> 100 µM	7.67 µM														
O=C(O)CCSC(=O)Nc1ccccc1Cl	> 100 µM	> 100 µM	> 100 µM	> 100 µM	> 100 µM	> 100 µM														
COc1ccc2c(c1)N(CCO)C1=C(C(=O)OC1)C2c1ccccc1 (stereo unspecified)	> 50 µM	19 µM	> 50 µM	> 50 µM	> 50 µM	> 50 µM	5.99 µM	41.7 µM			1.87 µM	1.55 µM	2.92 µM	1.78 µM	4.03 µM	> 50 µM	1.69 µM	2.98 µM		
COc1ccc2c(c1)C(=O)c1c-2n(CCCN)c(=O)c2cc(OC)c(OC)cc12	19.3 µM		0.554 µM			29.1 µM	0.57 µM	1.86 µM	1.33 µM	2.86 µM	3.58 µM		0.0529 µM					8.19 µM		
COc1ccc(/C=c2/sc3n(c2=O)NC(c2ccc(Cl)cc2)NN=3)cc1 (stereo unspecified)		> 100 µM	> 100 µM		> 100 µM	> 100 µM														
C/C(CCn1[nH]c(=O)ccc1=O)=N\Nc1ccc([N+](=O)[O-])cc1[N+](=O)[O-]	> 100 µM	> 100 µM	> 100 µM	> 100 µM	> 100 µM	> 100 µM														
C#CCN(N=O)C(=O)NCCCC(NC(C)=O)C(=O)NCc1ccccc1 (stereo unspecified)	> 100 µM	> 100 µM	> 100 µM	> 100 µM	51 µM	> 100 µM														
CC(=O)C1CCC2C3CC=C4CC(SC(=N)N)CCC4(C)C3CCC12C (stereo unspecified)	3.34 µM	9.26 µM		3.33 µM							1.69 µM	2.9 µM		1.41 µM					4.85 µM	2.02 µM
N#Cc1cc(NC(=O)c2ccccc2)c(=O)n2c1[nH]c1ccccc12	> 100 µM			38.3 µM		67.7 µM														
Nc1ccc2c(c1)Oc1c(F)c(F)cc3c(=O)c(C(=O)O)cn-2c13				> 100 µM	> 100 µM	> 100 µM														
